In series [1] the test system is K562 CML cell line. Set-up: method as in PMID 31574910. As to conditions: previously reported by the authors; read-out: IC50, cytotoxic activity against K562 CML cell line; cited from earlier work.
Series [2] deals with T98G human glioblastoma cells. The series can be described thus: MTT cytotoxicity assay, T98G cells. In kind it is cell-based. As to conditions: for IC50: Homo sapiens, T98G, MTT, 72 h; for anticancer activity against T98G cells: at 100 µM concentration. The method, then:
(§1) U251, T98G (Japanese Collection of Research Bioresources Cell Bank), and U87 human glioblastoma cell lines were incubated in Dulbecco’s Modified Eagle Medium (DMEM)/Ham’s F12 (Wako Pure Chemical Industries, Osaka, Japan), Eagle’s Minimum Essential Medium (EMEM; Wako Pure Chemical Industries, Osaka, Japan), and DMEM (Gibco/Thermo Fisher Scientific, Waltham, MA, USA) respectively, and supplemented with 10% fetal bovine serum (FBS; Sigma Aldrich, MO, USA). Jurkat human leukemic T-cell line was cultured in Roswell Park Memorial Institute (RPMI) 1640 (Wako Pure Chemical Industries, Osaka, Japan), supplemented with 10% FBS. PBMCs (Precision Bioservices, Frederick, MD, USA) were incubated in RPMI 1640 and supplemented with 10% human serum AB (HS) (Gemini, Woodland, CA, USA). All media were supplemented with 89 μg/mL streptomycin (Meiji Seika Pharma, Tokyo, Japan) at 37 °C in a humid atmosphere and 5% CO2. For each experiment, growing cells were plated at 4 × 10^4 cells/mL and 6 × 10^5 cells/mL into 24-well and 96-well microtiter tissue culture plates (Iwaki brand Asahi Glass Co., Chiba, Japan) respectively and incubated for 72 h before the addition of the drugs (the optimal cell number for cytotoxicity assays was determined in preliminary experiments). The stock solutions of the compounds and cisplatin (Sigma-Aldrich, St. Louis, MO, USA) in concentrations between 0.1–10 mM were prepared in dimethyl sulfoxide (DMSO; Wako Pure Chemical Industries, Osaka, Japan) and in H2O respectively, then were added to fresh culture medium. The concentration of DMSO and H2O in the final culture medium was 1% which had no effect on the cell viability.
(§2) The MTT (Dojindo Molecular Technologies, Kumamoto, Japan) assay was carried out using the U251, T98G, U87, Jurkat, and PBMC cells to determine the cytotoxicity of compounds 1–13 and cisplatin as previously described in the literature with small modifications. Treated cells were incubated with different concentrations (1–100 µM) of the compounds for 72 h at 37 °C in the CO2 incubator. About 100 µL (1.1 mg/mL) of MTT solution was added to each well and after further incubation for 4 h, formazan crystals formed. At the end of this period, the medium was removed and the formazan crystals were solubilized by the addition of 100 μL DMSO to each well. The absorbance was read on an Infinite M1000 plate reader (Tecan, Mannedorf, Switzerland) at a wavelength of 550 nm with background subtraction at 630 nm. All experiments were performed in triplicate and IC50 values were defined as the drug concentrations that reduced absorbance to 50% of control values.

The subject of series [3] is U251 human glioblastoma cells. As to the kind of experiment: MTT cytotoxicity assay, U251 cells. In kind it is cell-based. As to conditions: for IC50: Homo sapiens, U-251, MTT, 72 h; for anticancer activity against U251 cells: at 100 µM concentration. On the procedure:
as §1, §2

In series [4] the target is ABL1 kinase. Set-up: method as in PMID 31574910. As to conditions: previously reported by the authors; read-out: ABL1 kinase inhibition IC50; cited from earlier work.
The subject of series [5] is U87 human glioblastoma cells. As to the kind of experiment: MTT cytotoxicity assay, U87 cells. As to conditions: for IC50: Homo sapiens, U-87 MG, MTT, 72 h; for anticancer activity against U87 cells: at 100 µM concentration. The class given is cell-based. The method, then: as §1, §2
Series [6] has as its system K562 cells. Set-up: method as in PMID 31574910. As to conditions: previously reported by the authors; cited from earlier work.
Series [7] addresses T1, IGF1R (Homo sapiens, UniProt P08069).
T1 construct: purchased Promega Corporation
As to the kind of experiment: Kinase profiling assay (ADP-Glo), IGF1R. The class given is biochemical. As to conditions: 30 µM concentration. The method, then: (§3) The kinase profiling assay protocol (TK1 and TK-2) was applied according to the manufacturer‘s instructions (Promega Corporation, Madison, WI, USA) with few modifications. In regard to this protocol, the EGFR, HER2, HER4, IGF1R, InsR, KDR, PDGFR-α, PDGFR-β, ABL1, BRK, BTK, CSK, FYN A, LCK, LYN B, and SRC kinase stocks in the kinase strips were diluted with 95 µL 2.5x kinase buffer and their substrate stock in the substrate strip was diluted with 15 µL of 100 µM ATP solutions. Then, the kinase reactions were performed using 2 µL of the kinase working stocks, 2 µL of the ATP/substrate working stocks, and 1 µL of compound solution (0.1–100 µM) or 5% DMSO solution in the 384-well plate. After 4 h of incubation at room temperature, the activity of kinases was detected using ADP-Glo Kinase Assay (Promega Corporation, Madison, WI, USA) according to the manufacturer‘s protocol. Briefly, 5 µL of ADP-Glo reagent was added into each well of 384-well plate and the mixture was incubated at room temperature for 40 min to stop the kinase reaction and deplete any ATP remaining. Then, 10 µL Kinase Detection Reagent was added and the mixture was incubated for a further 30 min to convert the kinase-produced ADP to ATP, and then to light. […]

For series [8], the system named is human peripheral blood mononuclear cells (PBMCs). As to the kind of experiment: MTT cytotoxicity assay, PBMCs. The class given is cell-based. Conditions: Homo sapiens, PBMC, 72 h. On the procedure:
as §1, §2

For series [9], the system named is U251 cells. The series can be described thus: Annexin V/ethidium homodimer III staining, apoptotic/necrotic cell detection. In kind it is cell-based, human. Conditions: 24 h; IC50 concentration (Figure 4 legend), 5 μM (method). On the procedure:
U251 cells (4 × 10^4 cells/well) were seeded in each well of a 24-well plate with compound 10 and cisplatin at 5 μM concentration for 24 h. Then, the apoptotic/necrotic/healthy cells detection kit protocol was applied according to the manufacturer’s instructions (PromoKine, Heidelberg, Germany) with few modifications. Briefly, the cells were washed twice with 1 × binding buffer and then treated with FITC-Annexin V (5 μL), ethidium homodimer III (5 μL), and Hoechst 33342 (5 μL) for 20 min at room temperature in a protected-light environment. After washing in 1 × binding buffer, cells were analyzed under an all-in-one fluorescence microscope Biorevo Fluorescence BZ-9000 (Keyence, Osaka, Japan). Healthy cells, apoptotic cells, late apoptotic or necrotic cells, and necrotic cells were counted as previously described.

The target in series [10] is T2, ABL1 (Homo sapiens, UniProt P00519).
T2 construct: purchased Promega Corporation
As to the kind of experiment: Kinase profiling assay (ADP-Glo), ABL1. In kind it is biochemical. As to conditions: 30 µM concentration. On the procedure: as §3

For series [11], the target named is T3, LYN B (Homo sapiens, UniProt P07948).
T3 construct: purchased Promega Corporation
The series can be described thus: Kinase profiling assay (ADP-Glo), LYN B. In kind it is biochemical. Conditions: 30 µM concentration. The method, then:
as §3

For series [12], the target named is T4, HER4 (Homo sapiens, UniProt Q15303).
T4 construct: purchased Promega Corporation
As to the kind of experiment: Kinase profiling assay (ADP-Glo), HER4. In kind it is biochemical. Conditions: 30 µM concentration. The method, then: as §3

In series [13] the target is T5, EGFR (Homo sapiens, UniProt P00533).
T5 construct: purchased Promega Corporation
The series can be described thus: Kinase inhibition assay (ADP-Glo), EGFR. In kind it is biochemical. The method, then:
The kinase profiling assay protocol (TK1 and TK-2) was applied according to the manufacturer‘s instructions (Promega Corporation, Madison, WI, USA) with few modifications. In regard to this protocol, the EGFR, HER2, HER4, IGF1R, InsR, KDR, PDGFR-α, PDGFR-β, ABL1, BRK, BTK, CSK, FYN A, LCK, LYN B, and SRC kinase stocks in the kinase strips were diluted with 95 µL 2.5x kinase buffer and their substrate stock in the substrate strip was diluted with 15 µL of 100 µM ATP solutions. Then, the kinase reactions were performed using 2 µL of the kinase working stocks, 2 µL of the ATP/substrate working stocks, and 1 µL of compound solution (0.1–100 µM) or 5% DMSO solution in the 384-well plate. After 4 h of incubation at room temperature, the activity of kinases was detected using ADP-Glo Kinase Assay (Promega Corporation, Madison, WI, USA) according to the manufacturer‘s protocol. Briefly, 5 µL of ADP-Glo reagent was added into each well of 384-well plate and the mixture was incubated at room temperature for 40 min to stop the kinase reaction and deplete any ATP remaining. Then, 10 µL Kinase Detection Reagent was added and the mixture was incubated for a further 30 min to convert the kinase-produced ADP to ATP, and then to light.

For series [14], the system named is Jurkat human leukemic T-cells. The series can be described thus: MTT cytotoxicity assay, Jurkat cells. In kind it is cell-based. The method, then:
as §1, §2

Series [15] deals with T6, SRC (Homo sapiens, UniProt P12931).
T6 construct: purchased Promega Corporation
The series can be described thus: Kinase profiling assay (ADP-Glo), SRC. The class given is biochemical. Conditions: 30 µM concentration. On the procedure:
as §3

Series [16] deals with T7, FYN A (Homo sapiens, UniProt P06241).
T7 construct: purchased Promega Corporation
The series can be described thus: Kinase profiling assay (ADP-Glo), FYN A. In kind it is biochemical. As to conditions: 30 µM concentration. The method, then: as §3

For series [17], the target named is T8, BRK (Homo sapiens, UniProt Q13882).
T8 construct: purchased Promega Corporation
The series can be described thus: Kinase profiling assay (ADP-Glo), BRK. In kind it is biochemical. Conditions: 30 µM concentration. The method, then:
as §3

Series [18] deals with T9, HER2 (Homo sapiens, UniProt P04626).
T9 construct: purchased Promega Corporation
The series can be described thus: Kinase profiling assay (ADP-Glo), HER2. Conditions: 30 µM concentration. The class given is biochemical. The method, then:
as §3

Series [19] has as its target T10, BTK (Homo sapiens, UniProt Q06187).
T10 construct: purchased Promega Corporation
The series can be described thus: Kinase profiling assay (ADP-Glo), BTK. In kind it is biochemical. As to conditions: 30 µM concentration. On the procedure: as §3

The structures appear in SMILES notation.

T5 sequence (P00533 25-1210): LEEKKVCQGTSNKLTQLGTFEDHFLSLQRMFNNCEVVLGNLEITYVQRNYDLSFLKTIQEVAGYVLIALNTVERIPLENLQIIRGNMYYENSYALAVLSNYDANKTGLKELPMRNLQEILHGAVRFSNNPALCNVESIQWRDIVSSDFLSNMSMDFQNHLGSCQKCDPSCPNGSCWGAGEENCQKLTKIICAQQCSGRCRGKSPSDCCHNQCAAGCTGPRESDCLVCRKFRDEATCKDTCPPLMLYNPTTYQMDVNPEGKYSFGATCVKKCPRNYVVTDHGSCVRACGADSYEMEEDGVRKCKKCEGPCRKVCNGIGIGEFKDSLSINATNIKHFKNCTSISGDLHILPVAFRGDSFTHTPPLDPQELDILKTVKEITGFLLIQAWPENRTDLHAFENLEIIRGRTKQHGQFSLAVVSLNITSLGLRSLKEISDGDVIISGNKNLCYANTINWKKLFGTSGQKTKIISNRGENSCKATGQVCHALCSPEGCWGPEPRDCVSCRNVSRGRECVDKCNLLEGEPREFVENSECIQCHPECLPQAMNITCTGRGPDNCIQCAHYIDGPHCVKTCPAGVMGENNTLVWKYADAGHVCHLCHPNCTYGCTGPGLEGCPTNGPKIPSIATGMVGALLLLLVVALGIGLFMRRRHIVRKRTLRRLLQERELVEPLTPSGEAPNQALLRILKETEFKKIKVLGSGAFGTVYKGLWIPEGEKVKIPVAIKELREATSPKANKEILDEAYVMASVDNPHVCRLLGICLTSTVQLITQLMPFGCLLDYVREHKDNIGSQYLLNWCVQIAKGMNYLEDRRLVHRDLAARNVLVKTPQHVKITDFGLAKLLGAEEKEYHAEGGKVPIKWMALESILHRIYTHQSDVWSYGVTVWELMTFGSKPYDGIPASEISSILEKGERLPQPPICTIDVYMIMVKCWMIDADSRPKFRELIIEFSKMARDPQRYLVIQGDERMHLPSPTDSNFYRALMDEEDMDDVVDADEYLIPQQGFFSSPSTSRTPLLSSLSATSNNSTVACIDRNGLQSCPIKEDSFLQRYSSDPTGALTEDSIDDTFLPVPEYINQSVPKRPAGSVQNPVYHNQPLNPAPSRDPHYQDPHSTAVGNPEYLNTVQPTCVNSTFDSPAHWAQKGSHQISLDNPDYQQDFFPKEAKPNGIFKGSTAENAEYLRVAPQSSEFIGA
T2 sequence (P00519 whole entry): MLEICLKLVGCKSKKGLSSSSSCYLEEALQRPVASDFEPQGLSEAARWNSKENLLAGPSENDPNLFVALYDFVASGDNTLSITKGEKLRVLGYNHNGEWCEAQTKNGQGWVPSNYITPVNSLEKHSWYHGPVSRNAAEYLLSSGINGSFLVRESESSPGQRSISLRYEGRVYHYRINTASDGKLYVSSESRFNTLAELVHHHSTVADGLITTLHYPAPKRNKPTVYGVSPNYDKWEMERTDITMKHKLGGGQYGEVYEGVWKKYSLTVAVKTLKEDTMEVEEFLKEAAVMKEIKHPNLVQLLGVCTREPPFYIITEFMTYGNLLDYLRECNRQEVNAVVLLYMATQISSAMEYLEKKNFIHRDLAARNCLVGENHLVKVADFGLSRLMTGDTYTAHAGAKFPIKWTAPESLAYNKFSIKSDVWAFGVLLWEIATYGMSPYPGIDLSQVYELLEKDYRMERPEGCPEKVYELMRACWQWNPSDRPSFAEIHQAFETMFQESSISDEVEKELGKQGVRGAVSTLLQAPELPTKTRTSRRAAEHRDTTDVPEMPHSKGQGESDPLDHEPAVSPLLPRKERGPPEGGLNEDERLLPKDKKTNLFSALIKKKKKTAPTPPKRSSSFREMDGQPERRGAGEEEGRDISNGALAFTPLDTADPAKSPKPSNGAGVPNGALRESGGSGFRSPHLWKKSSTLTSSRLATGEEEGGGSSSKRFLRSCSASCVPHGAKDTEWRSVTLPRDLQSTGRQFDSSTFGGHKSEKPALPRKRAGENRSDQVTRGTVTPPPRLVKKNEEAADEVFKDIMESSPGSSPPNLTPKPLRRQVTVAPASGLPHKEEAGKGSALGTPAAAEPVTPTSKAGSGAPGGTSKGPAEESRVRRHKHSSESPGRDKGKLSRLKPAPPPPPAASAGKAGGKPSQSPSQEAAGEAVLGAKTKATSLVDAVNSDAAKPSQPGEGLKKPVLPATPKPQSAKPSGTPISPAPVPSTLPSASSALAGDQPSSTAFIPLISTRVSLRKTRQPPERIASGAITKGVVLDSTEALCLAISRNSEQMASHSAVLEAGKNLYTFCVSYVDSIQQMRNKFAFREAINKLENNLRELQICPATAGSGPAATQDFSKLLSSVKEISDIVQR
T7 sequence (P06241 whole entry): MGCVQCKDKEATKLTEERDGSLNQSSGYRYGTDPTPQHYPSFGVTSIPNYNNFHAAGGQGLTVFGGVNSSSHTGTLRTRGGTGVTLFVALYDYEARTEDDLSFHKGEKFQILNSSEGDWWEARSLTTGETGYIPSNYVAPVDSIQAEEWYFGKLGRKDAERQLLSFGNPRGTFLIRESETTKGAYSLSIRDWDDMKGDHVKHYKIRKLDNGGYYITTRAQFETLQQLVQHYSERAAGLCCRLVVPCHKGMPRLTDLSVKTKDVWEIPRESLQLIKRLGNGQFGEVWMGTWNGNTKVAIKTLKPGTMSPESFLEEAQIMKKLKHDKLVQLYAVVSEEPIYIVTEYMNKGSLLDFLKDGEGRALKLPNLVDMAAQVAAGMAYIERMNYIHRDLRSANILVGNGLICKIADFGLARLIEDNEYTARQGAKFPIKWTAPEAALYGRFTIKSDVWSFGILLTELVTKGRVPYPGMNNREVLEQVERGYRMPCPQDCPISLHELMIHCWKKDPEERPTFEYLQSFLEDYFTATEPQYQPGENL
T10 sequence (Q06187 whole entry): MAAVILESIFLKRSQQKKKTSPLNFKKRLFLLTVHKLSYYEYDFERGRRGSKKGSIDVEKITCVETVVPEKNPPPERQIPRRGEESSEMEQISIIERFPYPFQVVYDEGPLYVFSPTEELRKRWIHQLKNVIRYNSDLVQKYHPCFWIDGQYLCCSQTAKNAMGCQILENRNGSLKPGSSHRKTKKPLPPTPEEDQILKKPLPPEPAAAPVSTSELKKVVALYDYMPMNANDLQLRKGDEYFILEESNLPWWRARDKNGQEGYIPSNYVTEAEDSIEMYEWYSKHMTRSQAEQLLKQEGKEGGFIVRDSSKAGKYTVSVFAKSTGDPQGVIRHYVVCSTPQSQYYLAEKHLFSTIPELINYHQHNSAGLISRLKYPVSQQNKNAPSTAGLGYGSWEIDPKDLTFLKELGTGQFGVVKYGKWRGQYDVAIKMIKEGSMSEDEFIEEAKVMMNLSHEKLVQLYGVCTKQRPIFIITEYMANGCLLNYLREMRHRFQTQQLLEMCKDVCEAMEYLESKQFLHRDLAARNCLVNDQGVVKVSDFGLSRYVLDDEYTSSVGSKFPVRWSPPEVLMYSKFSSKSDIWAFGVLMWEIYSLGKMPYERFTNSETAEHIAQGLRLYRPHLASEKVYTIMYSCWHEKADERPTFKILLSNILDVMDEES
T6 sequence (P12931 whole entry): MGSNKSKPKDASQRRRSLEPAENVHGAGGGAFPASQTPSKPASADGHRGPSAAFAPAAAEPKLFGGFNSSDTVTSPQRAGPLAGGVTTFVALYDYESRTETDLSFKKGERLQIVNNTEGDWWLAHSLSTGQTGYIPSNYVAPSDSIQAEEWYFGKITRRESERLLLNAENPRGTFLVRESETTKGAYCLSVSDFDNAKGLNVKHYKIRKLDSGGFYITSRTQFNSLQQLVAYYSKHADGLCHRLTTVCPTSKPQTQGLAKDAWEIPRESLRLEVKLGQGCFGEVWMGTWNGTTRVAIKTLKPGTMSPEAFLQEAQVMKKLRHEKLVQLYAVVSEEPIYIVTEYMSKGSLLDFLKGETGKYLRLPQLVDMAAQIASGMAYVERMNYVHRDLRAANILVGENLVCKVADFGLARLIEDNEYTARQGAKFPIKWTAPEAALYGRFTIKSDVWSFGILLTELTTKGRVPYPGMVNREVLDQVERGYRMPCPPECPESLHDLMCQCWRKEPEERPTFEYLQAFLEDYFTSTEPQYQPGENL
T8 sequence (Q13882 whole entry): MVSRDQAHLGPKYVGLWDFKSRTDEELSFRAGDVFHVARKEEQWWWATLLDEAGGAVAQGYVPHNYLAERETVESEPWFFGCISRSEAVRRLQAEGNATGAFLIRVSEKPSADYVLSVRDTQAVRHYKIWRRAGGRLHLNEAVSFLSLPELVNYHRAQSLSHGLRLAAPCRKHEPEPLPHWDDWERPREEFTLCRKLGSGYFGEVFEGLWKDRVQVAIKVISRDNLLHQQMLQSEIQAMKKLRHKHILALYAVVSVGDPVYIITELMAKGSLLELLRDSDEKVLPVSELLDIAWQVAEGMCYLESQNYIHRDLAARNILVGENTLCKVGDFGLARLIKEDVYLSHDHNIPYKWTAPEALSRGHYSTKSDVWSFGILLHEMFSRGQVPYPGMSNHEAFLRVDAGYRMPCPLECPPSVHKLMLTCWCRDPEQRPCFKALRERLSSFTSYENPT
T3 sequence (P07948 1-491 isoform P07948-2): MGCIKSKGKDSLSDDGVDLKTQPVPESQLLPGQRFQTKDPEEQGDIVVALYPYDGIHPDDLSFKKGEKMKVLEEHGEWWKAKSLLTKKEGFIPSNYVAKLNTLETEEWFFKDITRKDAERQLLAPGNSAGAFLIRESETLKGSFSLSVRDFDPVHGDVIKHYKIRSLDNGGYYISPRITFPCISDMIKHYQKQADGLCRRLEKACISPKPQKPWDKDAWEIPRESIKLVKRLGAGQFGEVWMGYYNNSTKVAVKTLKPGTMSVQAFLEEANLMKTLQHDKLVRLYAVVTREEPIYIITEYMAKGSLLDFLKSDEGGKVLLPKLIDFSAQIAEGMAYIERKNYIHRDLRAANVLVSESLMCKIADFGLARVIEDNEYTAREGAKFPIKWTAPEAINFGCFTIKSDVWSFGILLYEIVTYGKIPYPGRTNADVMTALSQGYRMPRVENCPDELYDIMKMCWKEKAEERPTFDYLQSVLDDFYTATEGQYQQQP

As to `CC1(C)CC[C@]2(C(=O)OCc3ccccc3)CC[C@]3(C)C(=CC[C@@H]4[C@@]5(C)CC[C@H](O)C(C)(C)[C@@H]5CC[C@]43C)[C@@H]2C1` [Compound 5], the IC50 is 5.46 µM in [1]; more than 100 µM in series [2]; more than 100 µM in series [3]; 1.44 µM in [4]; more than 100 µM in series [5]. Also, in series [2], the “anticancer activity against T98G cells” value was “no significant anticancer activity”. The “anticancer activity against U251 cells” value in [3] is “no significant anticancer activity”. Also, in [5], the “anticancer activity against U87 cells” value is “no significant anticancer activity”.

Regarding `CC1(C)CC[C@]2(C(=O)OCc3cc(C(F)(F)F)cc(C(F)(F)F)c3)CC[C@]3(C)C(=CC[C@@H]4[C@@]5(C)CC[C@H](O)[C@@](C)(C=O)[C@@H]5CC[C@]43C)[C@@H]2C1` [Compound 8], the IC50 in series [1] was 4.78 µM. Further, in series [2], the IC50 is more than 100 µM and the “anticancer activity against T98G cells” value is on record as “no significant anticancer activity”. In addition, in series [3], the IC50 is more than 100 µM and the “anticancer activity against U251 cells” value is reported as “no significant anticancer activity”. Besides, in [6], the “apoptosis in K562 cells” value was 24%. Besides, in [5], the IC50 is more than 100 µM and the “anticancer activity against U87 cells” value is reported as “no significant anticancer activity”.

Molecule `C[C@@H](NCC1(C)C(O)CCC2(C)C1CCC1(C)C2CC=C2C3CC(C)(C)CCC3(C(=O)O)CCC21C)c1ccccc1` (stereo partly drawn) [Compound 10, 10-Hydroxy-2,2,6a,6b,9,12a-hexamethyl-9-[(((R)-1-phenylethyl)amino)methyl]-1,2,3,4,4a,5,6,6a,6b,7,8,8a,9,10,11,12,12a,12b,13,14b-icosahydropicene-4a-carboxylic acid] came in with a melting point of 240 to 243 °C. Besides, in series [7], the IGF1R inhibition result was “no significant inhibition”. Moreover, the IC50 in series [8] worked out at 28.1 ± 5.05 µM. For the same molecule, the “apoptosis in U251 cells” value in series [9] is on record as 10.29%. Besides, in series [10], the ABL1 inhibition result is given as “moderate”. Moreover, the “LYN B inhibition” value in [11] is listed as “no significant inhibition”. Further, the HER4 inhibition entry in series [12] is recorded as “no significant inhibition”. Also, the “EGFR inhibition relative to InsR inhibition” value in series [13] (30 µM concentration, stronger inhibition of EGFR than InsR) is listed as “approximately 2 fold”. Moreover, the IC50 in series [13] (ADP-Glo kinase assay) came out at 9.43 µM. This molecule yielded an IC50 in series [2] of 8.19 ± 2.42 µM. The IC50 in series [14] (Homo sapiens, Jurkat, MTT, 72 h) was 3.56 ± 1.45 µM. The “SI (selectivity index)” value in [14] (SI = IC50 for PBMCs/IC50 for Jurkat cells) amounted to 7.90. The molecule also registered an IC50 in series [3] of 5.82 ± 1.66 µM. In addition, the SRC inhibition result in series [15] was “no significant inhibition”. Further, the “FYN A inhibition” value in series [16] was “moderate”. Also, the BRK inhibition result in series [17] is “no significant inhibition”. Also, in series [5], half-maximal inhibition (IC50) required 17 ± 4.92 µM. Also, in series [18], the HER2 inhibition result is reported as “moderate”. In addition, the BTK inhibition result in [19] was “no significant inhibition”.

Source of the values: PMC8537327, “EGFR-Targeted Pentacyclic Triterpene Analogues for Glioma Therapy” (International Journal of Molecular Sciences, 2021).
